Source: PubChem BioAssay AID1963973 (Molecular Pharmacology Branch, DTP, NCI, 2024)

System: 883617-216-R-J1-PDC tumor spheroids, viability
Experiment: Anticancer human tumor 883617-216-R-J1-PDC patient-derived bladder carcinoma cell line growth inhibition [PI3K]
Settings: spheroids with HUVEC and MSC; for IC50: curve of first compound; for viability, T/C: stronger effect = lower value
Summary of the method: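 Three cell types, namely tumor cells, endothelial cells and mesenchymal stem cells, formed each spheroid. Combinations with four PI3K inhibitors were screened at clinically achievable concentrations decreasing by half-log, and spheroid viability was recorded.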

[1] = second compound 0.0316 µM, first compound 0.000316 µM
[2] = second compound 0.0316 µM, first compound 0.001 µM
[3] = second compound 0.0316 µM, first compound 0.00316 µM
[4] = second compound 0.0316 µM, first compound 0.01 µM
[5] = second compound 0.0316 µM, first compound 0.0316 µM
[6] = second compound 0.0316 µM, first compound 0.1 µM
[7] = second compound 0.1 µM, first compound 0.000316 µM
[8] = second compound 0.1 µM, first compound 0.001 µM
[9] = second compound 0.1 µM, first compound 0.00316 µM
[10] = second compound 0.1 µM, first compound 0.01 µM
[11] = second compound 0.1 µM, first compound 0.0316 µM
[12] = second compound 0.1 µM, first compound 0.1 µM
[13] = second compound 0.316 µM, first compound 0.000316 µM
[14] = second compound 0.316 µM, first compound 0.001 µM
[15] = second compound 0.316 µM, first compound 0.00316 µM
[16] = second compound 0.316 µM, first compound 0.01 µM
[17] = second compound 0.316 µM, first compound 0.0316 µM
[18] = second compound 0.316 µM, first compound 0.1 µM
[19] = second compound 1 µM, first compound 0.000316 µM
[20] = second compound 1 µM, first compound 0.001 µM
[21] = second compound 1 µM, first compound 0.00316 µM
[22] = second compound 1 µM, first compound 0.01 µM
[23] = second compound 1 µM, first compound 0.0316 µM
[24] = second compound 1 µM, first compound 0.1 µM
[25] = second compound 3.16 µM, first compound 0.000316 µM
[26] = second compound 3.16 µM, first compound 0.001 µM
[27] = second compound 3.16 µM, first compound 0.00316 µM
[28] = second compound 3.16 µM, first compound 0.01 µM
[29] = second compound 3.16 µM, first compound 0.0316 µM
[30] = second compound 3.16 µM, first compound 0.1 µM
[31] = second compound 10 µM, first compound 0.000316 µM
[32] = second compound 10 µM, first compound 0.001 µM
[33] = second compound 10 µM, first compound 0.00316 µM
[34] = second compound 10 µM, first compound 0.01 µM
[35] = second compound 10 µM, first compound 0.0316 µM
[36] = second compound 10 µM, first compound 0.1 µM
[37] = second compound 0.0316 µM, first compound 0.316 µM
[38] = second compound 0.0316 µM, first compound 1 µM
[39] = second compound 0.0316 µM, first compound 3.16 µM
[40] = second compound 0.0316 µM, first compound 10 µM
[41] = second compound 0.1 µM, first compound 0.316 µM
[42] = second compound 0.1 µM, first compound 1 µM
[43] = second compound 0.1 µM, first compound 3.16 µM
[44] = second compound 0.1 µM, first compound 10 µM
[45] = second compound 0.316 µM, first compound 0.316 µM
[46] = second compound 0.316 µM, first compound 1 µM
[47] = second compound 0.316 µM, first compound 3.16 µM
[48] = second compound 0.316 µM, first compound 10 µM
[49] = second compound 1 µM, first compound 0.316 µM
[50] = second compound 1 µM, first compound 1 µM
[51] = second compound 1 µM, first compound 3.16 µM
[52] = second compound 1 µM, first compound 10 µM
[53] = second compound 3.16 µM, first compound 0.316 µM
[54] = second compound 3.16 µM, first compound 1 µM
[55] = second compound 3.16 µM, first compound 3.16 µM
[56] = second compound 3.16 µM, first compound 10 µM
[57] = second compound 10 µM, first compound 0.316 µM
[58] = second compound 10 µM, first compound 1 µM
[59] = second compound 10 µM, first compound 3.16 µM
[60] = second compound 10 µM, first compound 10 µM
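Further: spheroids exposed to agents for 7 days before the viability read.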

## CC(=O)c1c(C)c2cnc(Nc3ccc(N4CCNCC4)cn3)nc2n(C2CCCC2)c1=O + CC(Nc1ncnc2nc[nH]c12)c1cc2cccc(Cl)c2c(=O)n1-c1ccccc1
Second compound 0.0316 µM
  IC50: 86 nM
Second compound 0.1 µM
  IC50: 79.9 nM
Second compound 0.316 µM
  IC50: 76.2 nM
Second compound 1 µM
  IC50: 46.7 nM
Second compound 3.16 µM
  IC50: 23 nM
Second compound 10 µM
  IC50: < 0.316 nM
[1]
  viability, T/C: 92.9%
[2]
  viability, T/C: 94.6%
[3]
  viability, T/C: 87.7%
[4]
  viability, T/C: 86.6%
[5]
  viability, T/C: 79.6%
[6]
  viability, T/C: 45.2%
[7]
  viability, T/C: 96%
[8]
  viability, T/C: 107%
[9]
  viability, T/C: 76.3%
[10]
  viability, T/C: 79.8%
[11]
  viability, T/C: 86.3%
[12]
  viability, T/C: 40.8%
[13]
  viability, T/C: 100%
[14]
  viability, T/C: 95.3%
[15]
  viability, T/C: 87.1%
[16]
  viability, T/C: 84.3%
[17]
  viability, T/C: 58.8%
[18]
  viability, T/C: 47.3%
[19]
  viability, T/C: 98%
[20]
  viability, T/C: 78.3%
[21]
  viability, T/C: 80.3%
[22]
  viability, T/C: 71.3%
[23]
  viability, T/C: 58.6%
[24]
  viability, T/C: 36.4%
[25]
  viability, T/C: 76%
[26]
  viability, T/C: 61.3%
[27]
  viability, T/C: 68.8%
[28]
  viability, T/C: 58.6%
[29]
  viability, T/C: 44.1%
[30]
  viability, T/C: 38.1%
[31]
  viability, T/C: 52.7%
[32]
  viability, T/C: 39.4%
[33]
  viability, T/C: 41.4%
[34]
  viability, T/C: 46.4%
[35]
  viability, T/C: 31.9%
[36]
  viability, T/C: 23.9%

## CC(C)n1nc(-c2ccc3oc(N)nc3c2)c2c(N)ncnc21 + CC(Nc1ncnc2nc[nH]c12)c1cc2cccc(Cl)c2c(=O)n1-c1ccccc1
Second compound 0.0316 µM
  IC50: 32.1 nM
Second compound 0.1 µM
  IC50: 34.2 nM
Second compound 0.316 µM
  IC50: 30 nM
Second compound 1 µM
  IC50: 21.3 nM
Second compound 3.16 µM
  IC50: 13.5 nM
Second compound 10 µM
  IC50: 0.321 nM
[1]
  viability, T/C: 91%
[2]
  viability, T/C: 75.2%
[3]
  viability, T/C: 76.8%
[4]
  viability, T/C: 82%
[5]
  viability, T/C: 50.4%
[6]
  viability, T/C: 18.4%
[7]
  viability, T/C: 95.3%
[8]
  viability, T/C: 93%
[9]
  viability, T/C: 87.6%
[10]
  viability, T/C: 69.7%
[11]
  viability, T/C: 54.5%
[12]
  viability, T/C: 17.4%
[13]
  viability, T/C: 87.4%
[14]
  viability, T/C: 92.5%
[15]
  viability, T/C: 81.7%
[16]
  viability, T/C: 72.8%
[17]
  viability, T/C: 49%
[18]
  viability, T/C: 19.9%
[19]
  viability, T/C: 91.2%
[20]
  viability, T/C: 77.1%
[21]
  viability, T/C: 80.2%
[22]
  viability, T/C: 68.3%
[23]
  viability, T/C: 40.2%
[24]
  viability, T/C: 19.6%
[25]
  viability, T/C: 83.6%
[26]
  viability, T/C: 58.9%
[27]
  viability, T/C: 63.2%
[28]
  viability, T/C: 60.6%
[29]
  viability, T/C: 38.1%
[30]
  viability, T/C: 17.7%
[31]
  viability, T/C: 48.3%
[32]
  viability, T/C: 50.7%
[33]
  viability, T/C: 45.8%
[34]
  viability, T/C: 36.3%
[35]
  viability, T/C: 26.8%
[36]
  viability, T/C: 13%

## CC1(C)CCC(CN2CCN(c3ccc(C(=O)NS(=O)(=O)c4ccc(NCC5CCOCC5)c([N+](=O)[O-])c4)c(Oc4cnc5[nH]ccc5c4)c3)CC2)=C(c2ccc(Cl)cc2)C1 + CC(Nc1ncnc2nc[nH]c12)c1cc2cccc(Cl)c2c(=O)n1-c1ccccc1
Second compound 0.0316 µM
  IC50: > 10000 nM
Second compound 0.1 µM
  IC50: > 10000 nM
Second compound 0.316 µM
  IC50: 8990 nM
Second compound 1 µM
  IC50: 7690 nM
Second compound 3.16 µM
  IC50: 6400 nM
Second compound 10 µM
  IC50: < 31.6 nM
[5]
  viability, T/C: 93.1%
[6]
  viability, T/C: 87.2%
[37]
  viability, T/C: 93.8%
[38]
  viability, T/C: 87.7%
[39]
  viability, T/C: 87%
[40]
  viability, T/C: 50.8%
[11]
  viability, T/C: 97%
[12]
  viability, T/C: 84.3%
[41]
  viability, T/C: 91.7%
[42]
  viability, T/C: 97.5%
[43]
  viability, T/C: 90.8%
[44]
  viability, T/C: 52%
[17]
  viability, T/C: 94.7%
[18]
  viability, T/C: 96.2%
[45]
  viability, T/C: 92%
[46]
  viability, T/C: 88%
[47]
  viability, T/C: 76.6%
[48]
  viability, T/C: 46.9%
[23]
  viability, T/C: 85.2%
[24]
  viability, T/C: 85.8%
[49]
  viability, T/C: 88%
[50]
  viability, T/C: 79.3%
[51]
  viability, T/C: 70.1%
[52]
  viability, T/C: 44.2%
[29]
  viability, T/C: 62.6%
[30]
  viability, T/C: 76%
[53]
  viability, T/C: 62.6%
[54]
  viability, T/C: 65.7%
[55]
  viability, T/C: 59.2%
[56]
  viability, T/C: 44.1%
[35]
  viability, T/C: 49%
[36]
  viability, T/C: 52.6%
[57]
  viability, T/C: 46.3%
[58]
  viability, T/C: 40.3%
[59]
  viability, T/C: 46.1%
[60]
  viability, T/C: 28.3%

## CCCS(=O)(=O)Nc1ccc(F)c(C(=O)c2c[nH]c3ncc(-c4ccc(Cl)cc4)cc23)c1F + CC(Nc1ncnc2nc[nH]c12)c1cc2cccc(Cl)c2c(=O)n1-c1ccccc1
Second compound 0.0316 µM
  IC50: 4210 nM
Second compound 0.1 µM
  IC50: 4650 nM
Second compound 0.316 µM
  IC50: 4540 nM
Second compound 1 µM
  IC50: 3910 nM
Second compound 3.16 µM
  IC50: 3620 nM
Second compound 10 µM
  IC50: 1700 nM
[5]
  viability, T/C: 94.8%
[6]
  viability, T/C: 92.3%
[37]
  viability, T/C: 97.1%
[38]
  viability, T/C: 102%
[39]
  viability, T/C: 63.4%
[40]
  viability, T/C: 9.37%
[11]
  viability, T/C: 85%
[12]
  viability, T/C: 91.8%
[41]
  viability, T/C: 114%
[42]
  viability, T/C: 85.1%
[43]
  viability, T/C: 70.5%
[44]
  viability, T/C: 10.7%
[17]
  viability, T/C: 91.8%
[18]
  viability, T/C: 91.1%
[45]
  viability, T/C: 95%
[46]
  viability, T/C: 97.1%
[47]
  viability, T/C: 67.7%
[48]
  viability, T/C: 11.3%
[23]
  viability, T/C: 99.9%
[24]
  viability, T/C: 89%
[49]
  viability, T/C: 87.9%
[50]
  viability, T/C: 72.4%
[51]
  viability, T/C: 65.1%
[52]
  viability, T/C: 9.68%
[29]
  viability, T/C: 75.3%
[30]
  viability, T/C: 75.7%
[53]
  viability, T/C: 72.1%
[54]
  viability, T/C: 71.5%
[55]
  viability, T/C: 55.2%
[56]
  viability, T/C: 10.6%
[35]
  viability, T/C: 52.9%
[36]
  viability, T/C: 57.4%
[57]
  viability, T/C: 55.3%
[58]
  viability, T/C: 66.5%
[59]
  viability, T/C: 40.5%
[60]
  viability, T/C: 11.8%
